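A five-concentration, 48-hour dose response in 96-well plates underlies each endpoint, interpolated linearly between surrounding concentrations. GI50 marks 50% less growth. TGI: concentration producing complete growth inhibition.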
Legend:
Test in all cases: NCI anticancer screen, dose series, 48 h; in the data active = GI50 below about 0.43 µM; inactive = the rest
SR leukemia = system: SR leukemia
COLO 205 colon = system: COLO 205 colon
UO-31 renal = system: UO-31 renal
CAKI-1 renal = system: CAKI-1 renal
SK-MEL-2 melanoma = system: SK-MEL-2 melanoma
SK-MEL-28 melanoma = system: SK-MEL-28 melanoma
NCI-H226 lung = system: NCI-H226 lung
HCT-116 colon = system: HCT-116 colon
IGROV1 ovarian = system: IGROV1 ovarian
KM12 colon = system: KM12 colon
LOX IMVI melanoma = system: LOX IMVI melanoma
K-562 leukemia = system: K-562 leukemia
MALME-3M melanoma = system: MALME-3M melanoma
NCI/ADR-RES ovarian = system: NCI/ADR-RES ovarian
DU-145 prostate = system: DU-145 prostate
SW-620 colon = system: SW-620 colon
SF-295 CNS = system: SF-295 CNS
MDA-MB-435 = system: MDA-MB-435
SN12C renal = system: SN12C renal
SK-OV-3 ovarian = system: SK-OV-3 ovarian
T-47D breast = system: T-47D breast
HL-60(TB) leukemia = system: HL-60(TB) leukemia
HCC-2998 colon = system: HCC-2998 colon
SF-268 CNS = system: SF-268 CNS
TK-10 renal = system: TK-10 renal
MCF7 breast = system: MCF7 breast
NCI-H460 lung = system: NCI-H460 lung
SK-MEL-5 melanoma = system: SK-MEL-5 melanoma
MOLT-4 leukemia = system: MOLT-4 leukemia

CC(=O)OC1Oc2ccccc2-c2oc(=O)c(-c3ccc(F)cc3)cc21 (stereo not drawn)
43 µM: TGI (KM12 colon)
70.7 µM: TGI (MALME-3M melanoma)
83.8 µM: TGI (TK-10 renal)
31 µM: TGI (SK-MEL-5 melanoma)
9.08 µM: TGI (SR leukemia)
31.1 µM: TGI (MOLT-4 leukemia)
> 100 µM: TGI (COLO 205 colon) | TGI (UO-31 renal) | TGI (CAKI-1 renal) | TGI (SK-MEL-2 melanoma) | TGI (SK-MEL-28 melanoma) | TGI (HCT-116 colon) | TGI (IGROV1 ovarian) | TGI (K-562 leukemia) | TGI (NCI/ADR-RES ovarian) | TGI (DU-145 prostate) | TGI (SW-620 colon) | TGI (SF-295 CNS) | TGI (SN12C renal) | TGI (SK-OV-3 ovarian) | TGI (HL-60(TB) leukemia) | TGI (HCC-2998 colon) | TGI (SF-268 CNS) | TGI (NCI-H460 lung)
78.1 µM: TGI (NCI-H226 lung)
73.2 µM: TGI (LOX IMVI melanoma)
40.3 µM: TGI (MDA-MB-435)
40 µM: TGI (MCF7 breast)
inactive: GI50 (SR leukemia) 2.86 µM | GI50 (COLO 205 colon) 36.3 µM | GI50 (UO-31 renal) 32.8 µM | GI50 (CAKI-1 renal) 30.9 µM | GI50 (SK-MEL-2 melanoma) 39.5 µM | GI50 (SK-MEL-28 melanoma) 32.6 µM | GI50 (NCI-H226 lung) 29.7 µM | GI50 (HCT-116 colon) 31.5 µM | GI50 (IGROV1 ovarian) 33.5 µM | GI50 (KM12 colon) 12.2 µM | GI50 (LOX IMVI melanoma) 16.6 µM | GI50 (K-562 leukemia) 17.1 µM | GI50 (MALME-3M melanoma) 21.9 µM | GI50 (NCI/ADR-RES ovarian) 60 µM | GI50 (DU-145 prostate) 29 µM | GI50 (SW-620 colon) 19 µM | GI50 (SF-295 CNS) 23.3 µM | GI50 (MDA-MB-435) 4.33 µM | GI50 (SN12C renal) 35.1 µM | GI50 (SK-OV-3 ovarian) 35 µM | GI50 (T-47D breast) 22.5 µM | GI50 (HL-60(TB) leukemia) 24.9 µM | GI50 (HCC-2998 colon) 24.8 µM | GI50 (SF-268 CNS) 29.6 µM | GI50 (TK-10 renal) 26.7 µM | GI50 (MCF7 breast) 6.01 µM | GI50 (NCI-H460 lung) 25.2 µM | GI50 (SK-MEL-5 melanoma) 14.9 µM | GI50 (MOLT-4 leukemia) 14 µM
93.3 µM: TGI (T-47D breast)
